The results in this text go back to patent US12583870B2, “Azaheteroaryl compound and application thereof” (SHANGHAI BLUERAY BIOPHARMA CO., LTD., priority 2019, dated 2026).

A word on the IC50: it is the concentration at which inhibition is half-maximal. A lower IC50 goes with higher potency.

Test [1] deals with trimethylation level of histone H3K27 in G401 cells. Kind of test: ELISA (H3K27 trimethylation) analysis in G401 cells. As to conditions: Homo sapiens, G-401, 72 hours, H3K27me3 standardized to H3. The test is classed as cell-based. On the procedure:
3-fold series dilution with DMSO was carried out on the representative compounds of the present disclosure; and 10 concentration gradients were detected for each compound, with the highest detection concentration of 10 μM. The compounds were diluted 200-fold into the G401 cells cultured in a 96-well plate (DMSO at a final concentration of 0.5%). After the cells, administered with the compound, were cultured for 72 hours, the trimethylation level of the histone H3K27 was detected using the ELISA method.
Extraction of the histone: in a 96-well plate, the compound-treated cells were washed three times with 1×PBS (10×PBS buffer (80 g NaCl (Sigma, product number S3014), 2 g KCl (Sigma, product number 60128), 14.4 g Na2HPO4 (Sigma, product number S5136), and 2.4 g KH2PO4 (Sigma, product number P9791) in 1 L of water, adjusting the pH to 7.4)). 100 μL of 0.4 N HCl was added into each well. The plate was placed at 4° C. and gently agitated for 2 hours to lyse the cells. The cell lysate was then neutralized with 80 μL of neutralization buffer (0.5 M disodium hydrogen phosphate, pH 12.5, 2.5 mM DTT; 1% cocktail (Sigma, product number P8340)) (the cell lysate and the neutralization buffer were thoroughly mixed to uniformity).
ELISA detection method: the cell lysate was transferred in parallel to two 384-well detection plates (PerkinElmer, OptiPlate-384HB, product number 6007290), wherein one of the plates was used to detect the H3K27 trimethylation level and the other plate was used to determine the level of H3. PBS was used to adjust the final volume to 50 μL/well. The plates were coated at 4° C. overnight. On the following day, the solution inside the wells was discarded and the plates were washed 5 times with TBST buffer (1×TBS (10×TBS: 24.2 g Tris (Sigma, product number T6066), 80 g NaCl (Sigma, product number S3014) in 1 L of water, adjusting the pH with HCl to 7.6), 0.1% Tween-20) and dried on an absorbent paper by inversion. 70 μL of blocking buffer (TBST, 5% BSA) was added into the coated reaction wells and the plates were incubated at room temperature for 1 hour. The blocking buffer was discarded and primary antibodies were added (30 μL/well). The desired primary antibodies were all diluted with a blocking buffer and the dilution factor was as follows: anti-H3K27me3 antibody (Cell Signaling Technology, product number 9733), 1:2000 dilution; anti-H3 antibody (Cell Signaling Technology, product number 4499), 1:10000 dilution. After the primary antibodies were added, the plates were placed at room temperature and incubated for 1 hour. After the plates were washed with TBST 5 times, the plates were dried by inversion. A secondary antibody (30 μL/well) was added to each of the reaction wells and the plates were incubated at room temperature for 1 hour. The secondary antibody (anti-rabbit antibody (Jackson ImmunoResearch, product number 111-035-003)) was diluted 2000-fold with a blocking buffer before use. After 1 hour, the plates were washed with TBST and dried by inversion. 30 μL of ECL substrate (Pierce, product number 34080) was added into each well and centrifuged at 2000 rpm for 30 seconds. The signal of each sample was detected using SpectraMax (Molecular Devices). Data processing: H3K27 methylation readings were first standardlized using H3 signals and 0.5% DMSO-treated samples was used as the control to calculate the inhibition percentage of the compounds. Data were fit to obtain Dose-Response curves using the GraphPad prism 5 program and the IC50 values of the test compounds were obtained.
For orientation: In an ELISA, binding on a coated surface is turned into a signal by an enzyme label.

Test [2] concerns KARPAS-422 cells. Kind of test: Cell proliferation analysis, KARPAS-422, 13 days, CellTiter-Glo. The test is classed as cell-based. The conditions noted are these: Homo sapiens, 312 h. How it is done:
Human B-cell non-Hodgkin lymphoma cells, KARPAS-422 S, were cultured in a culture flask using standard cell culture conditions. The medium contained 15% fetal bovine serum (FBS, Invitrogen, product number 10099-141) and 1% penicillin/streptomycin solution (P/S) RPMI-1640 (Invitrogen, product number 11875), and the culture flask was placed and cultured in a sterile incubator at the temperature of 37° C. and […] with a relative humidity of […] To detect the effect of PRC2 inhibitors on cell proliferation, cells in exponential growth phase were taken and seeded into a 96-well plate (Corning, product number 3904) at a density of 1×10^4 cells/well, and 100 μL of the medium was added into each well. Subsequently, the compounds at different concentrations disclosed in the present disclosure were added into the wells where cells had already been seeded (9 concentration gradients were provided for each compound, with the highest detection concentration at 10 μM, 3-fold gradient dilution) and two replicates in parallel were provided for each treatment concentration. DMSO was at a final concentration of 0.5%. Afterwards, viable cell numbers were determined using Vi-CELL (Beckman Coulter) every 3-4 days. Cells counted were seeded into a new 96-well plate at the same density (1×10^4 cells/well) each time. The wells were supplemented with a fresh medium to 100 μL and at the same time, compounds at different concentrations were added. The cells were cultured to day 13. 100 μL of CellTiter-Glo (CellTiter-GloCellTiter-GloCellTiter-GloCTG) (Promega, product number G7573) was added into each well. The plate was placed in the dark at room temperature for 10-20 minutes and the luminescence signal was read using SpectraMax i3× (Molecular Devices).
(Cellular ATP, detected with luciferase, serves as a proxy for viable cell number.)

Turning to `Cc1ccc(-c2cnc(NCc3c(F)ccc4c3CCO4)n3cnnc23)c2nnc(C)n12`, the half-inhibitory concentration (IC50) in test [1] was found to be 0.0008 µM.
`CC(C)(O)COCc1ccc(-c2cnc(NCc3c(F)ccc4c3CCO4)n3cnnc23)c2ncnn12` [1-((8-(5-(((5-fluoro-2,3-dihydrobenzofuran-4-yl)methyl)amino)-[1,2,4]triazolo[4,3-c]pyrimidin-8-yl)-[1,2,4]triazolo[1,5-a]pyridin-5-yl)methoxy)-2-methylpropan-2-ol]: the values for the half-inhibitory concentration (IC50) in test [2] and in test [1] were 0.0012 µM and 0.0064 µM, respectively.
Taken in the same sequence, the figures for `CC(C)(O)CNCc1ccc(-c2cnc(NCc3c(F)ccc4c3CCO4)n3cnnc23)c2ncnn12` [1-(((8-(5-(((5-fluoro-2,3-dihydrobenzofuran-4-yl)methyl)amino)-[1,2,4]triazolo[4,3-c]pyrimidin-8-yl)-[1,2,4]triazolo[1,5-a]pyridin-5-yl)methyl)amino)-2-methylpropan-2-ol] were 0.0021 µM and 0.0022 µM.
Taken in the same sequence, the figures for `Cc1ccc(-c2cnc(NCc3c(F)ccc4c3CCO4)n3cnnc23)c2ncc(CC(=O)N3CCOCC3)n12` [2-(8-(5-(((5-fluoro-2,3-dihydrobenzofuran-4-yl)methyl)amino)-[1,2,4]triazolo[4,3-c]pyrimidin-8-yl)-5-methylimidazo[1,2-a]pyridin-3-yl)-1-morpholinoethan-1-one] were 0.0057 µM and 0.0143 µM.
With `Cc1ccc(-c2cnc(NCc3c(F)ccc4c3CCO4)n3cnnc23)c2ncc(CC#N)n12` [2-(8-(5-(((5-fluoro-2,3-dihydrobenzofuran-4-yl)methyl)amino)-[1,2,4]triazolo[4,3-c]pyrimidin-8-yl)-5-methylimidazo[1,2-a]pyridin-3-yl)acetonitrile], the IC50 in test [2] was 0.0014 µM; in test [1] it was 0.007 µM.
Taken in the same sequence, the figures for `CC(C)(O)c1ccc(-c2cnc(NCc3c(F)ccc4c3CCO4)n3cnnc23)c2ncnn12` [2-(8-(5-(((5-fluoro-2,3-dihydrobenzofuran-4-yl)methyl)amino)-[1,2,4]triazolo[4,3-c]pyrimidin-8-yl)-[1,2,4]triazolo[1,5-a]pyridin-5-yl)propan-2-ol] were 0.0002 µM and 0.0004 µM.
As to `CN(C)Cc1ccc(-c2cnc(NCc3c(F)ccc4c3CCO4)n3cnnc23)c2ncc(C#N)n12` [5-((dimethylamino)methyl)-8-(5-(((5-fluoro-2,3-dihydrobenzofuran-4-yl)methyl)amino)-[1,2,4]triazolo[4,3-c]pyrimidin-8-yl)imidazo[1,2-a]pyridine-3-carbonitrile], the IC50 is 0.0005 µM in test [2] and 0.0007 µM in test [1].
Turning to `CN(C)c1ccc(-c2cnc(NCc3c(F)ccc4c3CCO4)n3cnnc23)c2ncc(C#N)n12` [5-(dimethylamino)-8-(5-(((5-fluoro-2,3-dihydrobenzofuran-4-yl)methyl)amino)-[1,2,4]triazolo[4,3-c]pyrimidin-8-yl)imidazo[1,2-a]pyridine-3-carbonitrile], the concentration for half-maximal inhibition (IC50) in test [2] and in test [1] was 0.0009 µM in each case.
Turning to `CN(C)C(=O)c1cnc2c(-c3cnc(NCc4c(F)ccc5c4CCO5)n4cnnc34)cc(F)cn12` [6-fluoro-8-(5-(((5-fluoro-2,3-dihydrobenzofuran-4-yl)methyl)amino)-[1,2,4]triazolo[4,3-c]pyrimidin-8-yl)-N,N-dimethylimidazo[1,2-a]pyridine-3-carboxamide], the figures for the IC50 in test [2] and in test [1] were 0.0024 µM and 0.0047 µM, respectively.
On to `N#Cc1cc(-c2cnc(NCc3c(F)ccc4c3CCO4)n3cnnc23)c2ncnn2c1` [8-(5-(((5-fluoro-2,3-dihydrobenzofuran-4-yl)methyl)amino)-[1,2,4]triazolo[4,3-c]pyrimidin-8-yl)-[1,2,4]triazolo[1,5-a]pyridine-6-carbonitrile], for which, in test [1], the IC50 was 0.0143 µM.
In turn, `Fc1ccc2c(c1CNc1ncc(-c3ccc(C(F)F)n4ncnc34)c3nncn13)CCO2` [8-(5-(difluoromethyl)-[1,2,4]triazolo[1,5-a]pyridin-8-yl)-N-((5-fluoro-2,3-dihydrobenzofuran-4-yl)methyl)-[1,2,4]triazolo[4,3-c]pyrimidin-5-amine] showed a 50% inhibitory concentration (IC50) in test [1] of 0.0055 µM.
Still for that read-out and setting: for `Cc1nc2c(-c3cnc(NCc4c(F)ccc5c4CCO5)n4cnnc34)ccc(N(C)C)n2n1` [8-(5-(dimethylamino)-2-methyl-[1,2,4]triazolo[1,5-a]pyridin-8-yl)-N-((5-fluoro-2,3-dihydrobenzofuran-4-yl)methyl)-[1,2,4]triazolo[4,3-c]pyrimidin-5-amine] the value was 0.0006 µM; for `CN(C)c1c(F)cc(-c2cnc(NCc3c(F)ccc4c3CCO4)n3cnnc23)c2ncnn12` [8-(5-(dimethylamino)-6-fluoro-[1,2,4]triazolo[1,5-a]pyridin-8-yl)-N-((5-fluoro-2,3-dihydrobenzofuran-4-yl)methyl)-[1,2,4]triazolo[4,3-c]pyrimidin-5-amine], 0.0028 µM.
The compound `CN(C)c1ncc(-c2cnc(NCc3c(F)ccc4c3CCO4)n3cnnc23)c2ncnn12` [8-(5-(dimethylamino)-[1,2,4]triazolo[1,5-c]pyrimidin-8-yl)-N-((5-fluoro-2,3-dihydrobenzofuran-4-yl)methyl)-[1,2,4]triazolo[4,3-c]pyrimidin-5-amine] gave an IC50 in test [1] of 0.0018 µM.
On the same count and under the same terms, for `CN(C)c1ccc(-c2cnc(NCc3c(F)ccc4c3CCO4)n3cnnc23)c2nncn12` [8-(5-(dimethylamino)-[1,2,4]triazolo[4,3-a]pyridin-8-yl)-N-((5-fluoro-2,3-dihydrobenzofuran-4-yl)methyl)-[1,2,4]triazolo[4,3-c]pyrimidin-5-amine] the value was 0.0078 µM; for `CP(C)(=O)c1cnc2c(-c3cnc(NCc4c(F)ccc5c4CCO5)n4cnnc34)cc(F)cn12` [(6-fluoro-8-(5-(((5-fluoro-2,3-dihydrobenzofuran-4-yl)methyl)amino)-[1,2,4]triazolo[4,3-c]pyrimidin-8-yl)imidazo[1,2-a]pyridin-3-yl)dimethylphosphine oxide], 0.0023 µM.
Regarding `CCOC(=O)c1cnc2c(-c3cnc(NCc4c(F)ccc5c4CCO5)n4cnnc34)ccc(C)n12` [Ethyl 8-(5-(((5-fluoro-2,3-dihydrobenzofuran-4-yl)methyl)amino)-[1,2,4]triazolo[4,3-c]pyrimidin-8-yl)-5-methylimidazo[1,2-a]pyridine-3-carboxylate], the half-maximal inhibitory concentration (IC50) in test [2] was determined as 0.0047 µM.
For the compound `Cc1ccc(-c2cnc(NCc3c(F)ccc4c3CCO4)n3cnnc23)c2ncc(S(C)(=O)=O)n12` [N-((5-fluoro-2,3-dihydrobenzofuran-4-yl)methyl)-8-(5-methyl-3-(methylsulfonyl)imidazo[1,2-a]pyridin-8-yl)-[1,2,4]triazolo[4,3-c]pyrimidin-5-amine], it took 0.088 µM to reach half-maximal inhibition in test [1] (IC50).
